# How the values were obtained:
# [1] = system: Bacillus subtilis; test: Bacterial Cytological Profiling (BCP); assay type: cell-based; conditions: two hours, LB-MSM osmotically buffered media, 37 °C
# Experimental: B. subtilis cells were grown in Luria Bertani (LB) medium at 37 °C until the optical density at 600 nm (OD600) was ~0.20. Cells were then left untreated or treated with compound 1 or control antibiotics in the presence of methylsulfonylmethane (MSM), as described previously. After two hours, cells were stained with FM 4−64 (1 μg/mL) to visualize cell membranes; DAPI (1 μg/ml) to visualize DNA, and SYTOX Green (1 μg/mL), a vital stain which is normally excluded from cells with an intact membrane but brightly stains cells that are lysed. Images were collected using a Delta Vision Spectris Deconvolution microscope, as described previously.
# [2] = system: S. aureus ATCC 6538 biofilm; test: bacterial CFU inside mature biofilm post-treatment; assay type: cell-based, Staphylococcus aureus; conditions: 64 μg/mL, 24 hours
# Experimental: (§1) Compounds 1, 2, and vancomycin were examined for their ability to eradicate mature staphylococcal biofilm using the microtiter dish biofilm formation assay. S. epidermidis NRS101 and S. aureus ATCC 6538 were selected as the test organisms given their ability to form strong adherent biofilm. An overnight culture of bacteria was diluted (1:100 in TSB + 1% glucose) and transferred to a 96-well plate. The plate was incubated for 24 hours at 37 °C in order to form adherent biofilm on the surface of the plate wells. The medium containing the bacterial suspension was removed and the biofilm was washed with sterile PBS to remove planktonic cells. Compounds 1, 2, or vancomycin (from 128 to 1 μg/mL), in triplicate, in TSB were incubated with the biofilm for 24 hours at 37 °C.
# (§2) For enumeration of viable CFU inside the biofilm, compounds were removed, wells were washed with sterile PBS, and treated with 0.25% Trypsin-2.21 mM EDTA solution as described elsewhere. The solution containing cells was transferred to a 96-well plate, serially diluted in PBS, and plated on TSA. Plates were incubated at 37 °C for 19 hours before viable CFU were counted. Data are presented as average log10(CFU/mL) of bacteria present in the biofilm post-treatment.
# [3] = system: S. epidermidis NRS101 biofilm; test: bacterial CFU inside mature biofilm post-treatment; assay type: cell-based, Staphylococcus epidermidis; conditions: 24 hours
# Experimental: as §1, §2
# [4] = system: S. aureus NRS107 (RN4220); test: accumulation of UDP-N-acetylmuramyl pentapeptide (HPLC-MS); assay type: cell-based, Staphylococcus aureus; conditions: 10 × MIC, 30 minutes
# Experimental: The accumulation of UDP-N-acetylmuramyl pentapeptide was detected using a procedure described in a previous study, with the following modifications. S. aureus NRS107 (RN4220), in early logarithmic growth stage (OD600 ~ 0.60), was incubated with 130 μg/mL chloramphenicol for 15 minutes at 37°C. […] Untreated samples served as a negative control. Samples were centrifuged at 10,000 rpm for five minutes, the supernatant discarded, and the pellet re-suspended in sterile deionzined water (1 mL). The pellet was boiled at […] for 30 minutes before samples were chilled on ice for 10 minutes. UDP-N-acetylmuramyl-pentapeptide was measured using an Agilent High Performance Liquid Chromatography coupled to a time-of-flight Mass Spectrometer (HPLC-MS). A Waters XBridge Phenyl (2.1 × 100 mm, 3.5 μm) chromatography column was used, with mobile phases of water, 0.1% formic acid (Buffer A) and acetonitrile, 0.1% formic acid (Buffer B). A gradient of 5–20% Buffer B over 14 minutes was used, with a flow rate of 0.3 mL/min. An electrospray source was used, in positive ionization mode. Extracted Ion Chromatograms (EIC) were generated at a mass-to-charge ratio (m/z) of 1150.3588 (20 ppm window). Mass error for UDP-N-acetylmuramyl-pentapeptide was <1 ppm.
# [5] = system: VRS10; test: microbe, parasite or virus in culture; assay type: cell-based, Staphylococcus aureus; conditions: Staphylococcus aureus, read-out: MIC of vancomycin
# Experimental: (§3) CAMHB was inoculated with strain VRS4 or strain VRS10 (5×10^5 CFU/mL), as described previously, with the following modifications. Aliquots ([…]) of the bacterial suspension were divided into micro-centrifuge tubes and compounds 1 or 2 (at ½ × MIC) were introduced into each tube. After 30 minutes of incubation at room temperature, samples from each tube were transferred to a new micro-centrifuge tube, prior to addition of vancomycin (at 128 μg/mL). Plates containing the test agents and bacteria were then incubated at 37 °C for 20–22 hours after which the MIC value was determined. A fold-reduction was calculated by comparing the MIC of vancomycin compared to the MIC of vancomycin given in combination with compounds 1 or 2 (at ½ × MIC).
# [6] = system: VRS4; test: microbe, parasite or virus in culture; assay type: cell-based, Staphylococcus aureus; conditions: Staphylococcus aureus, read-out: MIC of vancomycin
# Experimental: as §3
# [7] = system: S. epidermidis NRS101 biofilm; test: biofilm mass disruption, crystal violet reporter assay; assay type: cell-based, Staphylococcus epidermidis; conditions: 24-hour treatment
# Experimental: as §1
# (§4) Compounds were subsequently removed. The biofilm was washed with PBS and then stained with 1% (w/v) crystal violet for 40 minutes. The stain was removed and wells were washed with sterile PBS. Wells were next decolorized using 95% ethanol. The optical density of each well at 595 nm was measured using a microplate reader.
# [8] = system: S. aureus ATCC 6538 biofilm; test: as above; assay type: cell-based, Staphylococcus aureus; conditions: all concentrations tested
# Experimental: as §1, §4
# [9] = system: MRSA USA300 (NRS384); test: time-kill assay; assay type: cell-based, Staphylococcus aureus; conditions: 4 × MIC
# [10] = system: S. epidermidis NRS101; test: broth microdilution MIC; assay type: cell-based; conditions: Staphylococcus epidermidis, NRS101
# Experimental: (§5) The broth microdilution assay was employed to determine the MIC of compounds 1, 2, and vancomycin against five MRSA strains, four VRSA strains, one highly mupirocin-resistant S. aureus strain, one biofilm-forming S. aureus (ATCC 6538) strain, and one biofilm-forming methicillin-resistant S. epidermidis strain, as per the guidelines of the Clinical and Laboratory Standards Institute (CLSI). […] The MBC was determined by plating an aliquot (5 μL) from wells with no growth onto TSA plates. Plates were incubated at 37 °C for 19 hours before recording the MBC (concentration where no growth was observed on TSA plates).
# [11] = system: S. aureus ATCC 6538; test: broth microdilution MIC; assay type: cell-based; conditions: Staphylococcus aureus, ATCC6538
# Experimental: as §5
# [12] = system: clinically-relevant strains of MRSA and VRSA; test: broth microdilution MIC/MBC, panel summary; assay type: cell-based; conditions: Staphylococcus aureus, read-out: concentration inhibiting growth of MRSA isolates (MIC)
# Experimental: as §5
# [13] = system: MRSA NRS384 (USA300); test: broth microdilution MIC/MBC; assay type: cell-based; conditions: Staphylococcus aureus
# Experimental: as §5
# [14] = system: S. aureus NRS107; test: broth microdilution MIC/MBC; assay type: cell-based; conditions: Staphylococcus aureus, NRS107
# Experimental: as §5
# [15] = system: MRSA NRS483 (USA1000); test: broth microdilution MIC/MBC; assay type: cell-based; conditions: Staphylococcus aureus
# Experimental: as §5
# [16] = system: MRSA NRS484 (USA1100); test: broth microdilution MIC/MBC; assay type: cell-based; conditions: Staphylococcus aureus
# Experimental: as §5
# [17] = system: VRS10; test: broth microdilution MIC/MBC; assay type: cell-based; conditions: Staphylococcus aureus
# Experimental: as §5
# [18] = system: VRS7; test: broth microdilution MIC/MBC; assay type: cell-based; conditions: Staphylococcus aureus
# Experimental: as §5
# [19] = system: MRSA NRS387 (USA800); test: broth microdilution MIC/MBC; assay type: cell-based; conditions: Staphylococcus aureus
# Experimental: as §5
# [20] = system: VRS11a; test: broth microdilution MIC/MBC; assay type: cell-based; conditions: Staphylococcus aureus
# Experimental: as §5
# [21] = system: VRS4; test: broth microdilution MIC/MBC; assay type: cell-based; conditions: Staphylococcus aureus
# Experimental: as §5
# [22] = system: MRSA NRS123 (USA400); test: broth microdilution MIC/MBC; assay type: cell-based; conditions: Staphylococcus aureus
# Experimental: as §5
# [23] = system: MRSA USA400 (NRS123); test: MIC in presence and absence of human serum albumin; assay type: cell-based, Staphylococcus aureus; conditions: for MIC: Staphylococcus aureus, TSB
# Experimental: The broth microdilution assay presented above was used to assess if compounds 1 and 2 bind to a major component of blood (human serum albumin) thus limiting the free fraction of drug available to exert its antibacterial effect. […] CaCl2 ([…]) was added to wells containing daptomycin, per the CLSI guidelines.
# [24] = system: MRSA USA400 (NRS123); test: multi-step resistance selection; assay type: cell-based, Staphylococcus aureus; conditions: for increase in MIC after fourteen passages: fourteen passages over two weeks; for MIC: Staphylococcus aureus, read-out: initial MIC
# Experimental: To assess MRSA’s ability to develop resistance to the diphenylurea compounds after repeated exposure, a multi-step resistance selection experiment was conducted. […] Resistance was classified as a greater than four-fold increase in the initial MIC, as reported elsewhere.
# [25] = 4% human serum albumin, read-out: MIC vs. MRSA USA400 (+HSA)
# [26] = without human serum albumin, read-out: MIC vs. MRSA USA400 (-HSA)
compound,measurement,setting,value
Cc1onc(-c2ccccc2Cl)c1C(=O)N[C@@H]1C(=O)N2[C@@H]1SC(C)(C)[C@@H]2C(=O)O [cloxacillin],cytological profile (cell morphology),[1],bulges at the poles of the cells
"CN[C@H](CC(C)C)C(=O)N[C@H]1C(=O)N[C@@H](CC(N)=O)C(=O)N[C@H]2C(=O)N[C@H]3C(=O)N[C@H](C(=O)N[C@H](C(=O)O)c4cc(O)cc(O)c4-c4cc3ccc4O)[C@H](O)c3ccc(c(Cl)c3)Oc3cc2cc(c3O[C@@H]2O[C@H](CO)[C@@H](O)[C@H](O)[C@H]2O[C@H]2C[C@](C)(N)[C@H](O)[C@H](C)O2)Oc2ccc(cc2Cl)[C@H]1O [Vancomycin, vancomycin, reference compound]",reduction in bacterial CFU within S. aureus biofilm,[2],1.0 log10
same,reduction in bacterial CFU within S. epidermidis biofilm,[3]; 64 μg/mL,1.4 log10
same,reduction in bacterial CFU within S. epidermidis biofilm,[3]; 128 μg/mL,3.14 log10
same,UDP-N-acetylmuramyl pentapeptide accumulation,[4],notable increase
same,MIC,[5],512 µg/mL
same,MIC,[6],512 µg/mL
same,"S. epidermidis biofilm mass, OD595","[7]; 128 μg/mL, untreated control OD595 = 4.00",3.80
same,reduction in S. epidermidis biofilm mass,"[7]; 8 to 64 μg/mL, vs untreated control",no significant reduction
same,change in optical density of S. aureus biofilm (biofilm mass),[8],no change
same,time to completely eradicate a high inoculum of MRSA (~10^6 CFU/mL),[9],24 hours
same,MIC,[10],1 µg/mL
same,MIC,[11],0.5 µg/mL
same,MIC,[12],0.5 to 1 µg/mL
same,MBC,[13],0.5 µg/mL
same,MIC,[13],0.5 µg/mL
same,MBC,[14],2 µg/mL
same,MIC,[14],1 µg/mL
same,MBC,[15],1 µg/mL
same,MIC,[15],1 µg/mL
same,MBC,[16],2 µg/mL
same,MIC,[16],1 µg/mL
same,MBC,[17],> 64 µg/mL
same,MIC,[17],> 64 µg/mL
same,MBC,[18],> 64 µg/mL
same,MIC,[18],64 µg/mL
same,MBC,[19],1 µg/mL
same,MIC,[19],0.5 µg/mL
same,MBC,[20],> 64 µg/mL
same,MIC,[20],> 64 µg/mL
same,MBC,[21],> 64 µg/mL
same,MIC,[21],64 µg/mL
same,MBC,[22],1 µg/mL
same,MIC,[22],1 µg/mL
"CCCCCCCCCC(=O)N[C@@H](Cc1c[nH]c2ccccc12)C(=O)N[C@H](CC(N)=O)C(=O)N[C@@H](CC(=O)O)C(=O)N[C@@H]1C(=O)NCC(=O)N[C@@H](CCCN)C(=O)N[C@@H](CC(=O)O)C(=O)N[C@H](C)C(=O)N[C@@H](CC(=O)O)C(=O)NCC(=O)N[C@H](CO)C(=O)N[C@@H]([C@H](C)CC(=O)O)C(=O)N[C@@H](CC(=O)c2ccccc2N)C(=O)O[C@@H]1C [Daptomycin, daptomycin, reference compound]",MIC,[23]; [25],64 µg/mL
same,MIC,[23]; [26],2 µg/mL
O=C(O)c1cn(C2CC2)c2cc(N3CCNCC3)c(F)cc2c1=O [ciprofloxacin],increase in MIC after fourteen passages,[24]; MRSA USA400 (NRS123),seven-fold
same,increase in MIC after seven passages,"[24]; MRSA USA400 (NRS123), seven passages",three-fold
same,MIC,[24],1 µg/mL
Cc1onc(-c2ccccc2)c1C(=O)N[C@@H]1C(=O)N2[C@@H]1SC(C)(C)[C@@H]2C(=O)O [oxacillin],cytological profile (cell morphology),[1],bulges and misshapen cells
N[C@@H]1CON=C1O [D-cycloserine],cytological profile (cell morphology),[1],bulges and misshapen cells
ramoplanin,cytological profile (cell morphology),[1],bulges and misshapen cells
"CC(=O)NC[C@H]1CN(c2ccc(N3CCOCC3)c(F)c2)C(=O)O1 [Linezolid, linezolid, reference compound]",increase in MIC in the presence of HSA,"[23]; MRSA USA400, 4% human serum albumin vs none",remained unchanged
same,MIC,[23]; [25],1 µg/mL
same,MIC,[23]; [26],1 µg/mL
same,increase in MIC after fourteen passages,[24]; MRSA USA400 (NRS123),one-fold
same,MIC,[24],2 µg/mL

# Reference: article PMC5552351, “Bacteriological profiling of diphenylureas as a novel class of antibiotics against methicillin-resistant Staphylococcus aureus” (PLoS ONE, 2017)
